Consider one compound from patent US8629116B2, “Method for inducing a TRIF-bias” (priority 2008, dated 2014).

Where two headings read alike, the source gives them in different places.

Common to all, as to assay type: cell-based
Assay [1] has as its system human peripheral blood mononuclear cells (PBMCs). The experiment in a line: Cytokine/chemokine induction in fresh human PBMCs. The procedure: (§1) Peripheral blood mononuclear cells (PBMCs) are isolated from the blood of healthy donors via a Ficoll Hypaque 1.077 gradient and treated with agonists or are used to isolate adherent monocytes in monocyte media (RPMI 1640 (ATCC), 10% human AB serum (Lonza/BioWhittaker), 100 U/mL penicillin/100 ug/mL streptomycin (Sigma), 50 uM 2-mercaptoethanol (Sigma) as described (Stover et al. 4440-49; Kawai et al. 5887-94; Gervassi et al. 7231-39). Monocyte-derived macrophages are produced by incubating adherent monocytes for 5 days in monocyte media with 50 ng/mL rhM-CSF (R&D Systems) with media changes at day 3 and day 5 before agonist treatment. Monocyte-derived dendritic cells (DC) are produced by incubating adherent monocytes for 7 days in monocyte media with 10 ng/mL rhGM-CSF and 10 ng/mL rhIL-4 (R&D Systems) with media changes on day 3 and day 6.
Expression of TNFα and MIP-1α are dependent upon signaling through the TLR4 adaptor, MyD88, while expression of IP-10 and RANTES are dependent upon signaling through the TLR4 adaptor, TRIF/TICAM-1 (Hoebe et al, Kawai et al).

Assay [2] concerns the target T1, TLR4 receptor complex (Homo sapiens, UniProt O00206+Q9Y6Y9).
T1 construct: endogenous in cells; host or cells: primary human adherent monocytes isolated from PBMCs of healthy donors
The assay can be described thus: Inhibition of CRX-527- or LPS-induced cytokines by CRX-547 in primary human adherent monocytes. The conditions noted are these: for IC50: added simultaneously. The procedure:
as §1
CRX-527 signals through the TLR4/MD2 receptor complex leading to activation of transcription factors that lead to induction of cytokines and chemokines. […] (FIG. 10).
To that end, human primary monocytes are treated with a dose range of CRX-527 in the presence of increasing concentrations of CRX-547.
The resulting dose-response curves are fit with a 4 parameter logistic equation.
Plotting the log EC50 shift (DR-1) for each concentration of CRX-547 versus the log of the concentration of CRX-547 (Schild regression) allows us to compare the calculated affinity (Kbapp) with the EC50 for CRX-547 calculated from the CRX-547 and CRX-527 dose-response curve. […] (FIG. 10B.)

Assay [3] has as its target T2, muTLR4, muMD-2, and muCD14 (Mus musculus, UniProt Q9JHF9+Q9QUK6).
T2 construct: expressed in transfected cells; host or cells: HEK293
T2 sequence (Q9QUK6 26-835): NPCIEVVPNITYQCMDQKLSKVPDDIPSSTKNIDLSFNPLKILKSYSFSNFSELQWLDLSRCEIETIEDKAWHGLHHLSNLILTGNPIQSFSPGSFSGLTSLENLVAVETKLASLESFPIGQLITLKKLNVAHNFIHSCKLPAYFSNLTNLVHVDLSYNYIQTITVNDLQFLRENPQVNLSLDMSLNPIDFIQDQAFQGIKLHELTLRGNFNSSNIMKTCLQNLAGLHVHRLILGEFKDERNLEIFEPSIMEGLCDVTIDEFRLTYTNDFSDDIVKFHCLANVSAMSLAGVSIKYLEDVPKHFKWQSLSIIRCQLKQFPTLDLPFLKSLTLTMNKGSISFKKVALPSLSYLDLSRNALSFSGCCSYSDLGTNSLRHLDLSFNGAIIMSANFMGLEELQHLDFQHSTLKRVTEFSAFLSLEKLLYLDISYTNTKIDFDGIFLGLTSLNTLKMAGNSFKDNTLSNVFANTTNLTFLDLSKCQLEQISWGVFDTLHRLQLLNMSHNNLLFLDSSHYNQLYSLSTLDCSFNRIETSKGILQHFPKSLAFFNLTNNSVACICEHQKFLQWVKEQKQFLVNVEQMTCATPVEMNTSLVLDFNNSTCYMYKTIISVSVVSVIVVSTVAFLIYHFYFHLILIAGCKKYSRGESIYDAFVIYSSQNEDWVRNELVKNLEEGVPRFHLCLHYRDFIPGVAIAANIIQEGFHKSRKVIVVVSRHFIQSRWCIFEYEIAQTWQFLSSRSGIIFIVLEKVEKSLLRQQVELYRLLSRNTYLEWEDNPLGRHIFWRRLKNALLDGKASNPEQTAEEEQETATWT
T2 sequence (Q9JHF9 19-160): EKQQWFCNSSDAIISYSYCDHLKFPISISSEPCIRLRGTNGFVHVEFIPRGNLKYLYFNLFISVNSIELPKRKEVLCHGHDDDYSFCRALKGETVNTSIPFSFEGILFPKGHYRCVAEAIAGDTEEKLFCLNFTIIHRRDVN
The assay can be described thus: NFκB reporter activity in HEK293 cells transfected with muTLR4, muMD-2, muCD14. The conditions noted are these: HEK293 muTLR4/muMD-2/muCD14.

The mark [4] stands for this setting: compared among LPS, CRX-527, CRX-547.

T1 sequence (O00206 24-839): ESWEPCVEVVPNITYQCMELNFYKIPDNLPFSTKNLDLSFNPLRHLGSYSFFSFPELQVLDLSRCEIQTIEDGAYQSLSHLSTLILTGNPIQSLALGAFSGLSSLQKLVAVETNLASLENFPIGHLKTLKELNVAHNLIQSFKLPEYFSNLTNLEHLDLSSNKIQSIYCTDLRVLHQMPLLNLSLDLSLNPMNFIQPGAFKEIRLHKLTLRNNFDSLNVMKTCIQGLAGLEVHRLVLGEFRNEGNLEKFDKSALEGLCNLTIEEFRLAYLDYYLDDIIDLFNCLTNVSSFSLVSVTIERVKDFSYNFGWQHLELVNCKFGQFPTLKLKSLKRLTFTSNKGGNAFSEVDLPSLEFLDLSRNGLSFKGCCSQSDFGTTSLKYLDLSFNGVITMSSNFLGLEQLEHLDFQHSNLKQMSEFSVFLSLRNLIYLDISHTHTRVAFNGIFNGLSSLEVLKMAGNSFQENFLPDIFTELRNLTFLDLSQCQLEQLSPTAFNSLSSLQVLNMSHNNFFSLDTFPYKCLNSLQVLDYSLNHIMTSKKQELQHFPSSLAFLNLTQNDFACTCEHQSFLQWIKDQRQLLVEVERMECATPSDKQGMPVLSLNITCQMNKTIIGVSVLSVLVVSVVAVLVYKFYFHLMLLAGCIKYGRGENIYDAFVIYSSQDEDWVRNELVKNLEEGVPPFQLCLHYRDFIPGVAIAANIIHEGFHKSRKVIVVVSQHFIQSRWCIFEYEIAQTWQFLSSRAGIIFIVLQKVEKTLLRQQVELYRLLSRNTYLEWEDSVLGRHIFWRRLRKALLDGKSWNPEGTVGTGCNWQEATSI
T1 sequence (Q9Y6Y9 19-160): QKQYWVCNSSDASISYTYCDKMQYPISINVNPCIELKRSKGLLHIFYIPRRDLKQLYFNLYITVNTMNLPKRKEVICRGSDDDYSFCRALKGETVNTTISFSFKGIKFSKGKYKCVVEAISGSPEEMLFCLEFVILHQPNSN

Consider `CCCCCCCCCCCC(CC(=O)NC(COC1OC(CO)C(OP(=O)(O)O)C(OC(=O)CC(CCCCCCCCCCC)OC(=O)CCCCCCCCC)C1NC(=O)CC(CCCCCCCCCCC)OC(=O)CCCCCCCCC)C(=O)O)OC(=O)CCCCCCCCC.CCN(CC)CC` (centres unmarked) [CRX-547], for which, in assay [1] (setting [4]), the “induction of MIP-1α (MyD88-dependent)” value is “significantly lower levels” and the “induction of TNFα (MyD88-dependent)” value is listed as “significantly lower levels”. For the same compound, in assay [1] (relative to CRX-527 and LPS), the “induction of IP-10 (TRIF-dependent)” value was “comparable levels” and the “induction of RANTES (TRIF-dependent)” value was “comparable levels”. The “effect of CRX-547 on MCP-1 (TRIF-dependent) induction by fixed CRX-527 or LPS” value in assay [2] (at higher concentrations of CRX-547) is on record as “increased additively”. Also, the concentration for half-maximal inhibition (IC50) in assay [2] (fixed CRX-527 100 nM, read-out: IC50 for inhibition of TNFα induction by CRX-527) turned out to be 48 ± 30 nM. The half-inhibitory concentration (IC50) in assay [2] (fixed LPS 100 nM, read-out: IC50 for inhibition of TNFα induction by LPS) was 18 ± 12 nM. The “effect of CRX-547 on TNFα induction by fixed concentration of CRX-527 or LPS” value in assay [2] (increasing CRX-547 added prior to CRX-527 or LPS) is reported as “inhibited”. In assay [2] (relative to CRX-527 and LPS, monocytic cells), the “agonist character for induction of MyD88-dependent cytokines/chemokines” value is recorded as “partial agonist”. For the same compound, the Kd in assay [2] (shift of CRX-527-induced TNFα dose-response curves, read-out: affinity estimate (Kbapp) by Schild regression) is 0.33 nM. In addition, in assay [3], the NFκB reporter activity entry was “more similar to CRX-527 and LPS”.

Usually IC50 stands for the concentration that inhibits the measured activity by half.
